Data on twelve molecules can be found in patent EP4617261A1, “2,4,5-TRISUBSTITUTED PYRIMIDINE COMPOUND, PREPARATION METHOD THEREFOR, AND USE THEREOF” (Wenzhou Medical University, priority 2022, dated 2024).

One assay deals with T1, FGFR1 kinase (Homo sapiens, UniProt P11362).
T1 construct: purchased CARNA
The assay can be described thus: LANCE ULTRA Assay, inhibitory activity on FGFR1 kinase. It counts as biochemical. Particulars: for inhibition at 0.1 µM: read-out: In vitro FGFR1 kinase inhibition rate (%) (Concentration in 100 nM), Concentration 100 nM; for inhibition at 1 µM: read-out: In vitro FGFR1 kinase inhibition rate (%) (Concentration in 1000 nM), Concentration 1000 nM. As for the experimental part:
The inhibitory activity of the compounds on FGFR1 kinase was determined using a LANCE ULTRA Assay. The FGFR1 kinase was purchased from CARNA. Specific method was as follows: the compounds under test, adenosine triphosphate (ATP), specific substrate, and FGFR1 kinase were diluted with kinase diluent. A kinase reaction mixture contained FGFR1, ATP, substrate, HEPES (pH = 7.5), MgCl2, EGTA, and Tween-20. A group without any test compound served as a 100% phosphorylation control, and a group where EDTA was added immediately after the addition of FGFR1 kinase served as a 0% phosphorylation control. The kinase reaction mixture was incubated at room temperature for 1 h, and EDTA was added to terminate the reaction for 5 min, a specific antibody was then added, and the mixture was incubated at room temperature for another 1 h, and excitation light was detected using a PerkinElmer Envision Kinase Reader.

A further assay relates to H1581. The assay can be described thus: MTT assay, cell proliferation, H1581. It counts as cell-based. Particulars: Homo sapiens, NCI-H1581, H1581 cells, 72 h. As for the experimental part:
(§1) The effect of active compounds on cell proliferation was measured using an MTT assay. An experimental method was described as follows: the compounds under test were first dissolved in DMSO to prepare a stock solution, which was then diluted in gradient with a culture medium of the corresponding cells to prepare test samples, with a final concentration range of the compounds up to 20 µM. Cells in a logarithmic growth phase were seeded into 96-well cell culture plates at an appropriate density, and cultured overnight under corresponding culture conditions, and samples of the compound under test were added and continuously cultured for 72 h.

Another assay has as its system MRC-5. In words: MTT assay, cell proliferation, MRC-5. It counts as cell-based. Particulars: Homo sapiens, MRC5, MRC-5 cells, 72 h. As for the experimental part: as §1
The next assay has as its system A549. The assay can be described thus: MTT assay, cell proliferation, A549. Type of assay: cell-based. Particulars: Homo sapiens, A549 cells, 72 h. Here is the method:
An experimental method was described as follows: the compounds under test were first dissolved in DMSO to prepare a stock solution, which was then diluted in gradient with a culture medium of the corresponding cells to prepare test samples, with a final concentration range of the compounds up to 20 µM. Cells in a logarithmic growth phase were seeded into 96-well cell culture plates at an appropriate density, and cultured overnight under corresponding culture conditions, and samples of the compound under test were added and continuously cultured for 72 h.

T1 sequence (P11362 22-822): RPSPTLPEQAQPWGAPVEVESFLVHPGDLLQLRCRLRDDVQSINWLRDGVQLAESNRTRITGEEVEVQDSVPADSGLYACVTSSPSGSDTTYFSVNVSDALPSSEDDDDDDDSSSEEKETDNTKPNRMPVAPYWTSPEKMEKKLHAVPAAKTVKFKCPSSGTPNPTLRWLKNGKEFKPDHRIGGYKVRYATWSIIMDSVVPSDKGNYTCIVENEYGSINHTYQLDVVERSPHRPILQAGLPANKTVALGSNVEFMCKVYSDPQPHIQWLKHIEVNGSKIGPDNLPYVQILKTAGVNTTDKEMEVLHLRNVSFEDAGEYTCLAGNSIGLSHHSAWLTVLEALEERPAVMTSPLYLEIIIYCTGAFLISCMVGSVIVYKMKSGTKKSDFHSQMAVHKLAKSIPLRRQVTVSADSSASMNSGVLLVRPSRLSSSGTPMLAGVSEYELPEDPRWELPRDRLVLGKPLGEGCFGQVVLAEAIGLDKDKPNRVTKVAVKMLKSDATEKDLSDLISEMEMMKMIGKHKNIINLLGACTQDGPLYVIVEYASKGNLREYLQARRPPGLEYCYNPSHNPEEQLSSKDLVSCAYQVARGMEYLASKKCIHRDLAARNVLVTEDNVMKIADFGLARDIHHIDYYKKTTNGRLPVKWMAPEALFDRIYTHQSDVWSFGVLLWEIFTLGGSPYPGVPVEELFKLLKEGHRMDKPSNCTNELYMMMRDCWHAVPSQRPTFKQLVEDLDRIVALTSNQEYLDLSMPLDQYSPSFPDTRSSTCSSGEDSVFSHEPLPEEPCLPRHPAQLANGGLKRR

On to `C=CC(=O)Nc1cccc(C)c1Nc1nc(Nc2ccc(N3CCN(C)CC3)cc2)ncc1C` [Compound 12], for which, on FGFR1 kinase, the inhibition at 0.1 µM is -1.1%. For the molecule `CCN1CCN(c2ccc(Nc3cc(N(C)C(=O)Nc4c(Cl)c(OC)cc(OC)c4Cl)ncn3)cc2)CC1` [BGJ398, reference compound], the figures for the IC50 with H1581 and with MRC-5 were 0.0867 ± 0.00151 µM and 144 µM, respectively. As for `C=CC(=O)Nc1ccc(Nc2nc(Nc3ccc(N4C[C@@H](C)N[C@@H](C)C4)c(OC)c3)ncc2Cl)cc1Cl` [Compound 46], the IC50 in the assay with H1581 is 0.018 ± 0.00178 µM; in the assay with A549, 0.38 ± 0.1 µM; in the assay with MRC-5 it was 0.84 ± 0.07 µM. Regarding `C=CC(=O)Nc1ccc(CNc2nc(Nc3ccc(N4CCN(C)CC4)cc3)ncc2F)cc1` [Compound 18], the inhibition at 0.1 µM at FGFR1 kinase was 5.5%.

Regarding `C=CC(=O)Nc1ccc(CCNc2nc(Nc3ccc(N4CCN(C)CC4)cc3)ncc2F)cc1` [Compound 17], the inhibition at 0.1 µM at FGFR1 kinase stood at 43%. As for `C=CC(=O)Nc1ccccc1Nc1nc(Nc2ccc(N3CCN(C)CC3)cc2)ncc1Cl` [Compound 9], at FGFR1 kinase, the inhibition at 1 µM came to 94.9%. With `C=CC(=O)Nc1ccc(CCNc2nc(Nc3ccc(N4CCN(C)CC4)cc3)ncc2Cl)cc1` [Compound 33, N-(4-(2-((5-chloro-2-((4-(4-methylpiperazine-1-yl)phenyl)amino)pyrimidine-4-yl)amino)ethyl)phenyl)acrylamide], at FGFR1 kinase (read-out: In vitro FGFR1 kinase IC50 value), the IC50 came to 60.7 nM. For the same molecule, on FGFR1 kinase, the inhibition at 0.1 µM turned out to be 66.4%. Turning to `C=CC(=O)Nc1cccc(C)c1Nc1nc(Nc2ccc(N3CCN(C)CC3)cc2)ncc1OC` [Compound 13], the inhibition at 0.1 µM on FGFR1 kinase is -0.1%. As to `C=CC(=O)Nc1cccc(C)c1Nc1nc(Nc2ccc(N3CCN(C)CC3)cc2)ncc1F` [Compound 10], the inhibition at 1 µM at FGFR1 kinase was 1.23%. Turning to `C=CC(=O)Nc1cccc(C)c1Nc1nc(Nc2ccc(N3CCN(C)CC3)cc2)ncc1Cl` [Compound 11, N-(2-((5-chloro-2-((4-(4-methylpiperazine-1-yl)phenyl)amino)pyrimidine-4-yl)amino)-3-methylphenyl)acrylamide], the inhibition at 0.1 µM on FGFR1 kinase was 1.4%. With `C=CC(=O)NC(=O)c1ccc(Nc2nc(Nc3ccc(N4CCN(C)CC4)cc3)ncc2Cl)cc1Cl` [Compound 38, N-acryloyl-2-chloro-4-((5-chloro-2-((4-(4-methylpiperazine-1-yl)phenyl)amino)pyrimidine-4-yl)amino)benzamide], the inhibition at 0.1 µM on FGFR1 kinase was determined as 50.3%. As for `C=CC(=O)Nc1cccc(C)c1Nc1nc(Nc2ccc(N3CCN(C)CC3)cc2)ncc1C(F)(F)F` [Compound 14], the inhibition at 0.1 µM on FGFR1 kinase stood at 11.4%.
